Assay results published in patent US20230111310A1, “CARBOXYLIC ACID DERIVATIVE-SUBSTITUTED IMINO ARYL COMPOUND, PREPARATION METHOD THEREFOR, HERBICIDAL COMPOSITION AND USE THEREOF” (Qingdao Kingagroot Chemical Compound Co., Ltd., priority 2020, published 2023).

Tests used:
Test in all cases: Weeding effect in post-emergence stage
Assay type in all cases: in vivo
[1] = test system: Echinochloa crusgalli; details: for Weeding effect in post-emergence stage, Echinochloa crusgalli: Dose 15 g/ha, level of fresh weight growth control rate
Method in brief: (§1)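 Read-out is growth control rate, counted 3 weeks post-spray and averaged over three repeats. Greenhouse plants at the 2-3 leaf stage received spray-tower application at 500, 250, 125, 60, 30, 15 or 7.5 g/ha, with methyl oleate EC (1.5 liter/ha) and Tween 80 added.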

[2] = test system: Abutilon theophrasti; details: for Weeding effect in post-emergence stage, Abutilon theophrasti: Dose 15 g/ha, level of fresh weight growth control rate
Method in brief: as §1

[3] = test system: Eleusine indica; details: for Weeding effect in post-emergence stage, Eleusine indica: Dose 15 g/ha, level of fresh weight growth control rate
Method in brief: as §1

[4] = test system: Alopecurus japonicus; details: for Weeding effect in post-emergence stage, Alopecurus japonicus: Dose 15 g/ha, level of fresh weight growth control rate
Method in brief: as §1

[5] = test system: Digitaria sanguinalis; details: for Weeding effect in post-emergence stage, Digitaria sanguinalis: Dose 15 g/ha, level of fresh weight growth control rate
Method in brief: as §1

[6] = test system: Setaria viridis; details: for Weeding effect in post-emergence stage, Setaria viridis: Dose 15 g/ha, level of fresh weight growth control rate
Method in brief: as §1

[7] = Dose 30 g/ha, fresh weight control rate level

SMILES	Weeding effect in post-emergence stage, Echinochloa crusgalli (level) [1, 7]	Weeding effect in post-emergence stage, Abutilon theophrasti (level) [2, 7]	Weeding effect in post-emergence stage, Eleusine indica (level) [3, 7]	Weeding effect in post-emergence stage, Alopecurus japonicus (level) [4, 7]	Weeding effect in post-emergence stage, Digitaria sanguinalis (level) [5, 7]	Weeding effect in post-emergence stage, Setaria viridis (level) [6, 7]	Weeding effect in post-emergence stage, Echinochloa crusgalli [1]	Weeding effect in post-emergence stage, Abutilon theophrasti [2]	Weeding effect in post-emergence stage, Eleusine indica [3]	Weeding effect in post-emergence stage, Alopecurus japonicus [4]	Weeding effect in post-emergence stage, Digitaria sanguinalis [5]	Weeding effect in post-emergence stage, Setaria viridis [6]
COC(=O)C(C)O/N=C/c1cc(-n2c(=O)c(C)c(C(F)(F)F)n(C)c2=O)c(F)cc1Cl (racemic) [Compound 473]	5 (Level 5: growth control rate is above 85%)	5 (Level 5: growth control rate is above 85%)	5 (Level 5: growth control rate is above 85%)	5 (Level 5: growth control rate is above 85%)	5 (Level 5: growth control rate is above 85%)	5 (Level 5: growth control rate is above 85%)						
CCOC(=O)[C@@H](C)O/N=C/c1cc(-n2c(=O)n(C)c(=S)n(C)c2=O)c(F)cc1Cl [3(R)]							5 (Level 5: growth control rate is above 85%)	5 (Level 5: growth control rate is above 85%)	5 (Level 5: growth control rate is above 85%)	4 (Level 4: growth control rate is greater than or equal to 60% and less than 85%)	5 (Level 5: growth control rate is above 85%)	5 (Level 5: growth control rate is above 85%)
CCCOC(=O)[C@@H](C)O/N=C/c1cc(-n2c(=O)n(C)c(=S)n(C)c2=O)c(F)cc1Cl [4(R)]							5 (Level 5: growth control rate is above 85%)	5 (Level 5: growth control rate is above 85%)	5 (Level 5: growth control rate is above 85%)	5 (Level 5: growth control rate is above 85%)	5 (Level 5: growth control rate is above 85%)	5 (Level 5: growth control rate is above 85%)
CC(C)OC(=O)[C@@H](C)O/N=C/c1cc(-n2c(=O)n(C)c(=S)n(C)c2=O)c(F)cc1Cl [5(R)]							5 (Level 5: growth control rate is above 85%)	5 (Level 5: growth control rate is above 85%)	5 (Level 5: growth control rate is above 85%)	5 (Level 5: growth control rate is above 85%)	5 (Level 5: growth control rate is above 85%)	5 (Level 5: growth control rate is above 85%)
C=CCCOC(=O)[C@@H](C)O/N=C/c1cc(-n2c(=O)n(C)c(=S)n(C)c2=O)c(F)cc1Cl [6(R)]							5 (Level 5: growth control rate is above 85%)	5 (Level 5: growth control rate is above 85%)	5 (Level 5: growth control rate is above 85%)	5 (Level 5: growth control rate is above 85%)	5 (Level 5: growth control rate is above 85%)	5 (Level 5: growth control rate is above 85%)
C[C@@H](O/N=C/c1cc(-n2c(=O)n(C)c(=S)n(C)c2=O)c(F)cc1Cl)C(=O)OCC1CC1 [9(R)]							5 (Level 5: growth control rate is above 85%)	5 (Level 5: growth control rate is above 85%)	5 (Level 5: growth control rate is above 85%)	5 (Level 5: growth control rate is above 85%)	5 (Level 5: growth control rate is above 85%)	5 (Level 5: growth control rate is above 85%)
C[C@@H](O/N=C/c1cc(-n2c(=O)n(C)c(=S)n(C)c2=O)c(F)cc1Cl)C(=O)OCCF [10(R)]							5 (Level 5: growth control rate is above 85%)	5 (Level 5: growth control rate is above 85%)	5 (Level 5: growth control rate is above 85%)	5 (Level 5: growth control rate is above 85%)	5 (Level 5: growth control rate is above 85%)	5 (Level 5: growth control rate is above 85%)
C[C@@H](O/N=C/c1cc(-n2c(=O)n(C)c(=S)n(C)c2=O)c(F)cc1Cl)C(=O)OCCCF [11(R)]							5 (Level 5: growth control rate is above 85%)	5 (Level 5: growth control rate is above 85%)	5 (Level 5: growth control rate is above 85%)	5 (Level 5: growth control rate is above 85%)	5 (Level 5: growth control rate is above 85%)	5 (Level 5: growth control rate is above 85%)
C[C@@H](O/N=C/c1cc(-n2c(=O)n(C)c(=S)n(C)c2=O)c(F)cc1Cl)C(=O)OCCCC(F)(F)F [12(R)]							5 (Level 5: growth control rate is above 85%)	5 (Level 5: growth control rate is above 85%)	5 (Level 5: growth control rate is above 85%)	5 (Level 5: growth control rate is above 85%)	5 (Level 5: growth control rate is above 85%)	5 (Level 5: growth control rate is above 85%)
COCCOC(=O)[C@@H](C)O/N=C/c1cc(-n2c(=O)n(C)c(=S)n(C)c2=O)c(F)cc1Cl [14(R)]							5 (Level 5: growth control rate is above 85%)	5 (Level 5: growth control rate is above 85%)	5 (Level 5: growth control rate is above 85%)	4 (Level 4: growth control rate is greater than or equal to 60% and less than 85%)	5 (Level 5: growth control rate is above 85%)	5 (Level 5: growth control rate is above 85%)
CCOC(=O)COC(=O)[C@@H](C)O/N=C/c1cc(-n2c(=O)n(C)c(=S)n(C)c2=O)c(F)cc1Cl [17(R)]							5 (Level 5: growth control rate is above 85%)	5 (Level 5: growth control rate is above 85%)	5 (Level 5: growth control rate is above 85%)	5 (Level 5: growth control rate is above 85%)	5 (Level 5: growth control rate is above 85%)	5 (Level 5: growth control rate is above 85%)
CC(C)=NOC(=O)[C@@H](C)O/N=C/c1cc(-n2c(=O)n(C)c(=S)n(C)c2=O)c(F)cc1Cl [20(R)]							5 (Level 5: growth control rate is above 85%)	5 (Level 5: growth control rate is above 85%)	5 (Level 5: growth control rate is above 85%)	5 (Level 5: growth control rate is above 85%)	5 (Level 5: growth control rate is above 85%)	5 (Level 5: growth control rate is above 85%)
C[C@@H](O/N=C/c1cc(-n2c(=O)n(C)c(=S)n(C)c2=O)c(F)cc1Cl)C(=O)OCC1CCCO1 (stereo partly drawn) [24(R)]							5 (Level 5: growth control rate is above 85%)	5 (Level 5: growth control rate is above 85%)	5 (Level 5: growth control rate is above 85%)	5 (Level 5: growth control rate is above 85%)	5 (Level 5: growth control rate is above 85%)	5 (Level 5: growth control rate is above 85%)
